Holding throughout (assay): minimum inhibition concentration (MIC)
Holding throughout (type): cell-based

The subject of one test is Staph. aureus 209 P. The conditions noted are these: Staphylococcus aureus. An excerpt:
(§1) Regarding the antimicrobial activity of the tylosin derivatives of this invention shown by formula I, the minimum inhibition concentration (MIC) is shown in Table I.

The subject of a further test is Sh. dysenteriae JS 11910. The note with it: Shigella dysenteriae, JS11910.
Description: as §1

The subject of the next test is B. subtilis NRRL B-558. The conditions noted are these: Bacillus subtilis, NRRLB558.
Description: as §1

For another test, the system named is Staph. aureus MS 10225. The conditions noted are these: Staphylococcus aureus, MS10225.
Description: as §1

In another test the test system is Sal. enteritidis 1891. The conditions noted are these: Salmonella enterica.
Description: as §1

A further test concerns E. coli NIHJ. The conditions noted are these: Escherichia coli.
Description: as §1

In another test the test system is Ataph. aureus MS 9861.
Description: as §1

A further test deals with Kleb. pneumoniae PCI 602. The conditions noted are these: Klebsiella pneumoniae, PCI602.
Description: as §1

[1] abbreviates: Staph. aureus 209 P, read-out: MIC.
Where [2] appears, read: Sal. enteritidis 1891, read-out: MIC.
The mark [3] stands for this setting: B. subtilis NRRL B-558, read-out: MIC.
The mark [4] stands for this setting: Kleb. pneumoniae PCI 602, read-out: MIC.

Values after ≈ are worked out from the molar mass of the structure shown. Read-outs that look alike come from different tables or passages of the source.

Results on nine molecules are retold here after patent US4438109A, “Tylosin derivatives” (Zaidan Hojin Biseibutsu Kagaku Kenkyu Kai, priority 1980, dated 1984).

In general, MIC refers to the lowest concentration that inhibits growth of the organism. Regarding `CCC(=O)OCC1C=C(C)C=CC(=O)C(C)CC(CC=O)C(OC2OC(C)CC(N(C)C)C2O)C(C)C(O)CC(=O)OC1CC` (centres unmarked) [Example 10, 23-O-propionyl-4'-deoxy mycaminosyl tylonolide], the MIC in the test on Staph. aureus 209 P (setting [1]) was 0.2 mg/L (≈ 0.314 µM); in the test on Sh. dysenteriae JS 11910, 0.2 mg/L (≈ 0.314 µM); against B. subtilis NRRL B-558 it was < 0.2 mg/L; against Staph. aureus MS 10225, 0.2 mg/L (≈ 0.314 µM); with Sal. enteritidis 1891 (setting [2]), 0.78 mg/L (≈ 1.22 µM); with E. coli NIHJ (E. coli NIHJ, read-out: MIC) it was 6.25 mg/L (≈ 9.8 µM). Further, the figures for the MIC against Ataph. aureus MS 9861 and against Kleb. pneumoniae PCI 602 were 3.12 mg/L (≈ 4.89 µM) and 1.56 mg/L (≈ 2.45 µM), respectively.

Consider `CCC1OC(=O)CC(O)C(C)C(OC2OC(C)CC(N(C)C)C2O)C(CC=O)CC(C)C(=O)C=CC(C)=CC1CO` (centres unmarked) [Example 2, 4'-deoxy mycaminosyl tylonolide], for which the MIC in the test on Staph. aureus 209 P (209P) is 0.2 mg/L (≈ 0.344 µM); against Sh. dysenteriae JS 11910 it was < 0.2 mg/L; in the test with B. subtilis NRRL B-558 (setting [3]), 0.78 mg/L (≈ 1.34 µM); in the test on Staph. aureus MS 10225 it was 3.12 mg/L (≈ 5.36 µM); in the test on Sal. enteritidis 1891 (setting [2]) it was 0.78 mg/L (≈ 1.34 µM); in the test with E. coli NIHJ it was 3.12 mg/L (≈ 5.36 µM). Further, the results for the MIC in the test on Ataph. aureus MS 9861 and in the test on Kleb. pneumoniae PCI 602 (setting [4]) were 3.12 mg/L (≈ 5.36 µM) and 0.78 mg/L (≈ 1.34 µM), respectively.

Consider `CCC1OC(=O)CC(O)C(C)C(OC2OC(C)CC(N(C)C)C2O)C(CC=O)CC(C)C(=O)C=CC(C)=CC1CSc1ccccn1` (centres unmarked) [Example 27, 23,4'-dideoxy-23-(pyridine-2-ylthio) mycaminosyl tylonolide], for which the MIC in the test with Staph. aureus 209 P (setting [1]) was < 0.2 mg/L; in the test on Sh. dysenteriae JS 11910 it was 0.2 mg/L (≈ 0.296 µM); in the test on B. subtilis NRRL B-558 (setting [3]), < 0.2 mg/L; against Staph. aureus MS 10225, 0.39 mg/L (≈ 0.578 µM); in the test on Sal. enteritidis 1891 (setting [2]), 0.78 mg/L (≈ 1.16 µM); against E. coli NIHJ, 12.5 mg/L (≈ 18.5 µM). Besides, the MIC against Ataph. aureus MS 9861 is 0.78 mg/L (≈ 1.16 µM); with Kleb. pneumoniae PCI 602 (setting [4]), 1.56 mg/L (≈ 2.31 µM).

Take `CCC1OC(=O)CC(O)C(C)C(OC2OC(C)CC(N(C)C)C2O)C(CC=O)CC(C)C(=O)C=CC(C)=CC1COC1CCCCS1` (centres unmarked) [Example 19, 23-O-tetrahydrothiopyranyl-4'-deoxy mycaminosyl tylonolide]: the MIC in the test with Staph. aureus 209 P (setting [1]) is < 0.2 mg/L; against Sh. dysenteriae JS 11910, 0.39 mg/L (≈ 0.572 µM); against B. subtilis NRRL B-558, < 0.2 mg/L; against Staph. aureus MS 10225 it was < 0.2 mg/L; in the test with Sal. enteritidis 1891 (setting [2]), 1.56 mg/L (≈ 2.29 µM); in the test with E. coli NIHJ (E. coli NIHJ, read-out: MIC) it was 25 mg/L (≈ 36.7 µM). The minimum inhibitory concentration (MIC) with Ataph. aureus MS 9861 was < 0.2 mg/L; with Kleb. pneumoniae PCI 602, 3.12 mg/L (≈ 4.58 µM).

On to `CC[C@H]1OC(=O)C[C@@H](O)[C@H](C)[C@@H](O[C@@H]2O[C@H](C)[C@@H](O[C@H]3C[C@@](C)(O)[C@@H](O)[C@H](C)O3)[C@H](N(C)C)[C@H]2O)[C@@H](CC=O)C[C@@H](C)C(=O)/C=C/C(C)=C/[C@@H]1CO[C@@H]1O[C@H](C)[C@@H](O)[C@@H](OC)[C@H]1OC` [Tylosin], for which the MIC was 0.39 mg/L (≈ 0.426 µM) in the test on Staph. aureus 209 P (209P); 12.5 mg/L (≈ 13.6 µM) in the test on Sh. dysenteriae JS 11910; 3.12 mg/L (≈ 3.41 µM) against Staph. aureus MS 10225; 25 mg/L (≈ 27.3 µM) in the test with Sal. enteritidis 1891 (setting [2]); 100 mg/L (≈ 109 µM) in the test with E. coli NIHJ; 6.25 mg/L (≈ 6.82 µM) in the test with Ataph. aureus MS 9861. In the test on Kleb. pneumoniae PCI 602 (setting [4]), the MIC is 25 mg/L (≈ 27.3 µM).

Take `CCC1OC(=O)CC(O)C(C)C(OC2OC(C)CC(N(C)C)C2O)C(CC=O)CC(C)C(=O)C=CC(C)=CC1CCl` (centres unmarked) [Example 21, 23-chloro-23,4'-dideoxy mycaminosyl tylonolide]: the MIC with Staph. aureus 209 P (setting [1]) was 0.78 mg/L (≈ 1.3 µM); in the test with Sh. dysenteriae JS 11910, 0.39 mg/L (≈ 0.65 µM); in the test on B. subtilis NRRL B-558 (setting [3]), 0.2 mg/L (≈ 0.333 µM); against Staph. aureus MS 10225 it was 6.25 mg/L (≈ 10.4 µM); in the test with Sal. enteritidis 1891 (setting [2]), 0.39 mg/L (≈ 0.65 µM); with E. coli NIHJ (E. coli NIHJ, read-out: MIC), 6.25 mg/L (≈ 10.4 µM). Further, the MIC against Ataph. aureus MS 9861 was determined as 6.25 mg/L (≈ 10.4 µM); in the test with Kleb. pneumoniae PCI 602 (setting [4]), 1.56 mg/L (≈ 2.6 µM).

On to `CCC1OC(=O)CC(O)C(C)C(OC2OC(C)CC(N(C)C)C2O)C(CC=O)CC(C)C(=O)C=CC(C)=CC1COC1CCCS1` (centres unmarked) [Example 18, 23-O-tetrahydrothiofuranyl-4'-deoxy mycaminosyl tylonolide], for which the MIC in the test on Staph. aureus 209 P (setting [1]) is < 0.2 mg/L; with Sh. dysenteriae JS 11910, 0.39 mg/L (≈ 0.584 µM); with B. subtilis NRRL B-558, < 0.2 mg/L; in the test with Staph. aureus MS 10225, 0.2 mg/L (≈ 0.299 µM); in the test on Sal. enteritidis 1891 (setting [2]), 1.56 mg/L (≈ 2.34 µM); in the test with E. coli NIHJ (E. coli NIHJ, read-out: MIC) it was 6.25 mg/L (≈ 9.36 µM). Also, the values for the MIC against Ataph. aureus MS 9861 and in the test on Kleb. pneumoniae PCI 602 (setting [4]) were 0.2 mg/L (≈ 0.299 µM) and 1.56 mg/L (≈ 2.34 µM), respectively.

In the case of `CCC1OC(=O)CC(O)C(C)C(OC2OC(C)CC(N(C)C)C2O)C(CC=O)CC(C)C(=O)C=CC(C)=CC1COCSC` (centres unmarked) [Example 20, 23-O-methylthiomethyl-4'-deoxy mycaminosyl tylonolide], the MIC in the test on Staph. aureus 209 P (setting [1]) is < 0.2 mg/L; in the test on Sh. dysenteriae JS 11910 it was 0.78 mg/L (≈ 1.22 µM); in the test with B. subtilis NRRL B-558 (setting [3]), < 0.2 mg/L; in the test with Staph. aureus MS 10225 it was 0.78 mg/L (≈ 1.22 µM); in the test with Sal. enteritidis 1891 (setting [2]) it was 0.78 mg/L (≈ 1.22 µM); with E. coli NIHJ (E. coli NIHJ, read-out: MIC), 6.25 mg/L (≈ 9.74 µM). The MIC in the test with Ataph. aureus MS 9861 came to 3.12 mg/L (≈ 4.86 µM); in the test on Kleb. pneumoniae PCI 602 (setting [4]), 1.56 mg/L (≈ 2.43 µM).

Turning to `CCC1OC(=O)CC(O)C(C)C(OC2OC(C)CC(N(C)C)C2O)C(CC=O)CC(C)C(=O)C=CC(C)=CC1COC(C)=O` (centres unmarked) [Example 9, 23-O-acetyl-4'-deoxy mycaminosyl tylonolide], the MIC against Staph. aureus 209 P (209P) turned out to be 0.2 mg/L (≈ 0.321 µM); in the test on Sh. dysenteriae JS 11910, 0.78 mg/L (≈ 1.25 µM); against B. subtilis NRRL B-558, 0.39 mg/L (≈ 0.625 µM); with Staph. aureus MS 10225, 0.78 mg/L (≈ 1.25 µM); in the test on Sal. enteritidis 1891 (ENTERITIDIS) it was 1.56 mg/L (≈ 2.5 µM); against E. coli NIHJ, 6.25 mg/L (≈ 10 µM). Further, the MIC was 1.56 mg/L (≈ 2.5 µM) against Ataph. aureus MS 9861 and 6.25 mg/L (≈ 10 µM) in the test with Kleb. pneumoniae PCI 602 (setting [4]).
